Measured values as given in patent US9096832B2, “Differentiation of human embryonic stem cells” (LifeScan, Inc., priority 2007, dated 2015).

System: H9 embryonic stem cells
Assay: Microarray analysis of definitive endoderm stage cells on […] or MEFs +/- Wnt-3a (Table VI)
Assay type: cell-based, human
Settings: log format
[1] = DE treatment in low serum on MATRIGEL
[2] = DE treatment in low serum on MEFS

Method: Controls for each group included cells plated on [sequence]—coated dishes and cultured in MEF-conditioned medium or cells plated on MEFs and cultured in ES medium. All groups contained three biological replicates and each biological replicate was repeated on two separate gene chips.
Sample preparation, hybridization, and image analysis were performed according to the Affymetrix Human Genome U133 Plus 2.0 Array. Following normalization and a log transformation, data analysis was performed using OmniViz® software (MA) and [sequence] […] Significant differences in gene expression between the samples were evaluated using analysis of variance and an F-test with adjusted P-value (Benjamini and Hochberg correction) of less-than or equal to 0.05. Only genes with a present call in at least one group were included in the analysis.

Activin A: activin A (a member of the TGFβ superfamily), R&D Systems; 'w/o wnt' in Table VII = 100 ng/ml Activin A without Wnt3a
mean normalized intensity: DKFZP566K1924 protein [1]: 2.882
mean normalized intensity: ESTs, Moderately similar to ALU2_HUMAN ALU SUBFAMILY SB SEQUENCE CONTAMINATION WARNING ENTRY (H. sapiens) [1]: 4.241
mean normalized intensity: H. sapiens mRNA for B-HLH DNA binding protein. [1]: 5.43
mean normalized intensity: Homo sapiens BCL2-interacting killer (apoptosis-inducing) (BIK), mRNA. [1]: 4.3
mean normalized intensity: Homo sapiens Charot-Leyden crystal protein (CLC), mRNA. [1]: 3.301
mean normalized intensity: Homo sapiens HES-related repressor protein 1 HERP1 mRNA, complete cds. [1]: 2.806
mean normalized intensity: Homo sapiens HSPC156 protein (HSPC156), mRNA. [1]: 0.7862
mean normalized intensity: Homo sapiens KIAA0469 gene product (KIAA0469), mRNA. [1]: 4.031
mean normalized intensity: Homo sapiens PNAS-123 mRNA, complete cds [1]: 1.597
mean normalized intensity: Homo sapiens Wilms tumor 1 (WT1), transcript variant D, mRNA. [1]: 2.405
mean normalized intensity: Homo sapiens cDNA FLJ11398 fis, clone HEMBA1000637. [1]: 2.5268
mean normalized intensity: Homo sapiens cDNA: FLJ22547 fis, clone HSI00356 [1]: 4.294
mean normalized intensity: Homo sapiens cadherin 6, type 2, K-cadherin (fetal kidney) (CDH6), mRNA. [1]: 0.8248
mean normalized intensity: Homo sapiens chorionic somatomammotropin hormone 2 (CSH2), transcript variant 1, mRNA. [1]: 1.124
mean normalized intensity: Homo sapiens chorionic somatomammotropin hormone 2 (CSH2), transcript variant 4, mRNA. [1]: 0.8122
mean normalized intensity: Homo sapiens galanin receptor 1 (GALR1), mRNA. [1]: 2.507
mean normalized intensity: Homo sapiens growth hormone 2 (GH2), transcript variant 2, mRNA. [1]: 0.9226
mean normalized intensity: Homo sapiens hypothetical protein FLJ20075 (FLJ20075), mRNA. [1]: −0.3592
mean normalized intensity: Homo sapiens mRNA for SCCA2b, complete cds. [1]: 3.329
mean normalized intensity: Homo sapiens mRNA; cDNA DKFZp586P1124 (from clone DKFZp586P1124) [1]: 0.4856
mean normalized intensity: Homo sapiens methyl-CpG binding protein MBD2 (MBD2) mRNA, complete cds. [1]: 0.4906
mean normalized intensity: Homo sapiens tachykinin, precursor 1 (TAC1), transcript variant beta, mRNA. [1]: 2.773
mean normalized intensity: Homo sapiens testis expressed sequence 14 (TEX14), mRNA. [1]: 3.512
mean normalized intensity: Homo sapiens, Similar to LIM homeobox protein 8, clone IMAGE: 4839343, mRNA. [1]: −0.06288
mean normalized intensity: Homo sapiens, Similar to cadherin 6, type 2, K-cadherin (fetal kidney), clone MGC: 1470, mRNA, complete cds. [1]: 2.547
mean normalized intensity: Homo sapiens, Similar to hypothetical protein FLJ10058, clone MGC: 34305 IMAGE: 5167647, mRNA, complete cds. [1]: 1.698
mean normalized intensity: Homo sapiens, Similar to hypothetical protein FLJ32001, clone MGC: 39559 IMAGE: 4828136, mRNA, complete cds. [1]: 0.5207
mean normalized intensity: Homo sapiens, clone IMAGE: 4067166, mRNA [1]: 0.1959
mean normalized intensity: Homo sapiens, clone IMAGE: 4828836, mRNA. [1]: 0.9729
mean normalized intensity: Homo sapiens, serine (or cysteine) proteinase inhibitor, clade B (ovalbumin), member 3, clone MGC: 12244, mRNA, complete cds. [1]: 1.969
mean normalized intensity: Human mRNA upregulated during camptothecin-induced apoptosis of U937 cells. [1]: 0.4945
mean normalized intensity: Human platelet-derived growth factor alpha-receptor (PDGFRA) mRNA, exons 13-16 [1]: 2.445
mean normalized intensity: KIAA1151 protein [1]: 0.6425
mean normalized intensity: caldesmon 1 [1]: 7.092
mean normalized intensity: nuclear receptor subfamily 1, group I, member 3 [1]: 1.779
mean normalized intensity: ESTs (DE treatment in low serum on MATRIGEL, gene line r2006): 1.5857
mean normalized intensity: ESTs (DE treatment in low serum on MATRIGEL, gene line r2025): 1.531
mean normalized intensity: ESTs (DE treatment in low serum on MATRIGEL, gene line r2032): 0.1336
mean normalized intensity: paternally expressed 3 (DE treatment in low serum on MATRIGEL, gene line r2033): 2.876
mean normalized intensity: ESTs (DE treatment in low serum on MATRIGEL, gene line r2038): 3.262
mean normalized intensity: paternally expressed 3 (DE treatment in low serum on MATRIGEL, gene line r2093): 2.874
mean normalized intensity: ESTs (DE treatment in low serum on MATRIGEL, gene line r2134): −1.3795
mean normalized intensity: ESTs (DE treatment in low serum on MATRIGEL, gene line r2148): 4.454
mean normalized intensity: DKFZP566K1924 protein [2]: 1.391
mean normalized intensity: ESTs, Moderately similar to ALU2_HUMAN ALU SUBFAMILY SB SEQUENCE CONTAMINATION WARNING ENTRY (H. sapiens) [2]: 3.874
mean normalized intensity: H. sapiens mRNA for B-HLH DNA binding protein. [2]: 3.451
mean normalized intensity: Homo sapiens BCL2-interacting killer (apoptosis-inducing) (BIK), mRNA. [2]: 3.562
mean normalized intensity: Homo sapiens Charot-Leyden crystal protein (CLC), mRNA. [2]: 2.1096
mean normalized intensity: Homo sapiens HES-related repressor protein 1 HERP1 mRNA, complete cds. [2]: 2.406
mean normalized intensity: Homo sapiens HSPC156 protein (HSPC156), mRNA. [2]: 1.296
mean normalized intensity: Homo sapiens KIAA0469 gene product (KIAA0469), mRNA. [2]: 2.565
mean normalized intensity: Homo sapiens PNAS-123 mRNA, complete cds [2]: 1.847
mean normalized intensity: Homo sapiens Wilms tumor 1 (WT1), transcript variant D, mRNA. [2]: −2.435
mean normalized intensity: Homo sapiens cDNA FLJ11398 fis, clone HEMBA1000637. [2]: 1.849
mean normalized intensity: Homo sapiens cDNA: FLJ22547 fis, clone HSI00356 [2]: 2.095
mean normalized intensity: Homo sapiens cadherin 6, type 2, K-cadherin (fetal kidney) (CDH6), mRNA. [2]: −0.8763
mean normalized intensity: Homo sapiens chorionic somatomammotropin hormone 2 (CSH2), transcript variant 1, mRNA. [2]: 2.616
mean normalized intensity: Homo sapiens chorionic somatomammotropin hormone 2 (CSH2), transcript variant 4, mRNA. [2]: 2.218
mean normalized intensity: Homo sapiens galanin receptor 1 (GALR1), mRNA. [2]: −0.338
mean normalized intensity: Homo sapiens growth hormone 2 (GH2), transcript variant 2, mRNA. [2]: 1.4679
mean normalized intensity: Homo sapiens hypothetical protein FLJ20075 (FLJ20075), mRNA. [2]: −0.06528
mean normalized intensity: Homo sapiens mRNA for SCCA2b, complete cds. [2]: 0.568
mean normalized intensity: Homo sapiens mRNA; cDNA DKFZp586P1124 (from clone DKFZp586P1124) [2]: −3.094
mean normalized intensity: Homo sapiens methyl-CpG binding protein MBD2 (MBD2) mRNA, complete cds. [2]: −1.702
mean normalized intensity: Homo sapiens tachykinin, precursor 1 (TAC1), transcript variant beta, mRNA. [2]: 1.483
mean normalized intensity: Homo sapiens testis expressed sequence 14 (TEX14), mRNA. [2]: −1.3824
mean normalized intensity: Homo sapiens, Similar to LIM homeobox protein 8, clone IMAGE: 4839343, mRNA. [2]: −1.11
mean normalized intensity: Homo sapiens, Similar to cadherin 6, type 2, K-cadherin (fetal kidney), clone MGC: 1470, mRNA, complete cds. [2]: 2.134
mean normalized intensity: Homo sapiens, Similar to hypothetical protein FLJ10058, clone MGC: 34305 IMAGE: 5167647, mRNA, complete cds. [2]: 0.2156
mean normalized intensity: Homo sapiens, Similar to hypothetical protein FLJ32001, clone MGC: 39559 IMAGE: 4828136, mRNA, complete cds. [2]: 1.269
mean normalized intensity: Homo sapiens, clone IMAGE: 4067166, mRNA [2]: 0.277
mean normalized intensity: Homo sapiens, clone IMAGE: 4828836, mRNA. [2]: −1.484
mean normalized intensity: Homo sapiens, serine (or cysteine) proteinase inhibitor, clade B (ovalbumin), member 3, clone MGC: 12244, mRNA, complete cds. [2]: −1.566
mean normalized intensity: Human mRNA upregulated during camptothecin-induced apoptosis of U937 cells. [2]: −0.1892
mean normalized intensity: Human platelet-derived growth factor alpha-receptor (PDGFRA) mRNA, exons 13-16 [2]: 2.905
mean normalized intensity: KIAA1151 protein [2]: 1.009
mean normalized intensity: caldesmon 1 [2]: 5.634
mean normalized intensity: nuclear receptor subfamily 1, group I, member 3 [2]: −0.1968
mean normalized intensity: ESTs (DE treatment in low serum on MEFS, gene line r2006): −1.3
mean normalized intensity: ESTs (DE treatment in low serum on MEFS, gene line r2025): 1.373
mean normalized intensity: ESTs (DE treatment in low serum on MEFS, gene line r2032): −1.566
mean normalized intensity: paternally expressed 3 (DE treatment in low serum on MEFS, gene line r2033): −0.0118
mean normalized intensity: ESTs (DE treatment in low serum on MEFS, gene line r2038): 1.5682
mean normalized intensity: paternally expressed 3 (DE treatment in low serum on MEFS, gene line r2093): −3.492
